Data taken from ChEMBL document CHEMBL5291721, “A preclinical secondary pharmacology resource illuminates target-adverse drug reaction associations of marketed drugs” (Nat Commun, 2023).

Tests used:
Histamine H2 receptor = Histamine H2 receptor (Homo sapiens, UniProt P25021); assay type: functional, cell-based
[1] = biological target: T1, 5-hydroxytryptamine receptor 1A (Homo sapiens, UniProt P08908); assay type: functional, cell-based
T1 sequence (P08908 whole entry): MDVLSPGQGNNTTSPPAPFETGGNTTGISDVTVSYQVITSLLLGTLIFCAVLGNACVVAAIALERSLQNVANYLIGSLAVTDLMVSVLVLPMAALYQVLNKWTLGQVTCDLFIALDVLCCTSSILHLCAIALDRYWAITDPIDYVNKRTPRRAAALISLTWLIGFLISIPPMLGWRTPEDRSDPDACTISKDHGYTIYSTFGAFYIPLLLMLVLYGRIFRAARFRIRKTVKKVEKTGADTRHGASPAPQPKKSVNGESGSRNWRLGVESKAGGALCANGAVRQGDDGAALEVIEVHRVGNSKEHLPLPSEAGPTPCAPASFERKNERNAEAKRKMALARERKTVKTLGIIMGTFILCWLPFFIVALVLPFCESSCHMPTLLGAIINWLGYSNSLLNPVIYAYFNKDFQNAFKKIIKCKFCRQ

[2] = biological target: T2, Amine oxidase [flavin-containing] A (Homo sapiens, UniProt P21397); assay type: functional
T2 sequence (P21397 whole entry): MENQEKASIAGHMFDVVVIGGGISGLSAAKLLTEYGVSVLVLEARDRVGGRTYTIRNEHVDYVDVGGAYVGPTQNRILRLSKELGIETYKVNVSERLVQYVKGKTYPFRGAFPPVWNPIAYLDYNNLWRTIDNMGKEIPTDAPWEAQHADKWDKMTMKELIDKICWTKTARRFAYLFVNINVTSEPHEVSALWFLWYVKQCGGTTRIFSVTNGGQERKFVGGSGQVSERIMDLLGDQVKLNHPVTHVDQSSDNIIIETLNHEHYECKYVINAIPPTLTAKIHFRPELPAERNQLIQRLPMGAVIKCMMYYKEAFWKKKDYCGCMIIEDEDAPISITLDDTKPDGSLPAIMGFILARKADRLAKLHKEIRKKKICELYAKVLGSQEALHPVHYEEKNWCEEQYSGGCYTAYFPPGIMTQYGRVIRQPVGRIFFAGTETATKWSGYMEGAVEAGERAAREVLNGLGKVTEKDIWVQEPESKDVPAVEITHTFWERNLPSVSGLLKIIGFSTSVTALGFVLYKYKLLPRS

D(3) dopamine receptor [3] = biological target: T3, D(3) dopamine receptor (Homo sapiens, UniProt P35462)
T3 sequence (P35462 whole entry): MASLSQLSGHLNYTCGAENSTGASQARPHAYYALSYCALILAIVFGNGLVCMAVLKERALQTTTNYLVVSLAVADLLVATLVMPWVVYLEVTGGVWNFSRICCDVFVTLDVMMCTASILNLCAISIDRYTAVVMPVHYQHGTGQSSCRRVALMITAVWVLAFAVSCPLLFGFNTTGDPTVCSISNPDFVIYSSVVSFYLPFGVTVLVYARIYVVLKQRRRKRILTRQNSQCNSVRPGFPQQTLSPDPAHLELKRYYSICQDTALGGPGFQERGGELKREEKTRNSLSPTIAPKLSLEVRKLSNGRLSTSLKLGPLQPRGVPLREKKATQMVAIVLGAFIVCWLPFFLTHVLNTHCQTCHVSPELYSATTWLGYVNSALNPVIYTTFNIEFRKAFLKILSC

[4] = biological target: Kappa-type opioid receptor (Homo sapiens, UniProt P41145)
Kappa-type opioid receptor, sequence (P41145 whole entry): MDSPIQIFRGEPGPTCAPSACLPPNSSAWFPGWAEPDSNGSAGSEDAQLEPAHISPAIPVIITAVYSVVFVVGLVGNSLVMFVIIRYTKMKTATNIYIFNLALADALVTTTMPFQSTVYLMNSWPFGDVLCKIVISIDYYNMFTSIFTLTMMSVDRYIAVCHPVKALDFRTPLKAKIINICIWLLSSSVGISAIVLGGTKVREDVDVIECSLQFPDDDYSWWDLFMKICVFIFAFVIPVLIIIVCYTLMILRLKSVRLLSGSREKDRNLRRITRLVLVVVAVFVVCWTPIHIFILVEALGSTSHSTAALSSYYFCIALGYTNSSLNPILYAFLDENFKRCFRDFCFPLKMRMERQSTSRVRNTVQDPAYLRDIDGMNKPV

Histamine H3 receptor = Histamine H3 receptor (Homo sapiens, UniProt Q9Y5N1)
Histamine H3 receptor, sequence (Q9Y5N1 whole entry): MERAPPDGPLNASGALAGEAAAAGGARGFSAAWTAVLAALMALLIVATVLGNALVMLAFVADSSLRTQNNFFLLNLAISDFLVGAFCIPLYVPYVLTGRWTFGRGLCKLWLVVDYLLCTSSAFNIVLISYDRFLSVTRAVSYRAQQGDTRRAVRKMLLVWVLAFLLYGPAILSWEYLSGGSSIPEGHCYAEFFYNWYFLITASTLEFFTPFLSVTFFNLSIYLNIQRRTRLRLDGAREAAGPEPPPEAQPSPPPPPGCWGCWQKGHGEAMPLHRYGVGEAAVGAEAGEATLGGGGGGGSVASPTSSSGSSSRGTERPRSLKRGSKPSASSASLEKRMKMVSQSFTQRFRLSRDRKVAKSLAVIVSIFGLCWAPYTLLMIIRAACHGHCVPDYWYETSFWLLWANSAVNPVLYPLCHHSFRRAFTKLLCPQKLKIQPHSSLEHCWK

[5] = biological target: Gamma-aminobutyric acid receptor subunit alpha-1 (Rattus norvegicus, UniProt P62813); assay type: functional
Gamma-aminobutyric acid receptor subunit alpha-1, sequence (P62813 whole entry): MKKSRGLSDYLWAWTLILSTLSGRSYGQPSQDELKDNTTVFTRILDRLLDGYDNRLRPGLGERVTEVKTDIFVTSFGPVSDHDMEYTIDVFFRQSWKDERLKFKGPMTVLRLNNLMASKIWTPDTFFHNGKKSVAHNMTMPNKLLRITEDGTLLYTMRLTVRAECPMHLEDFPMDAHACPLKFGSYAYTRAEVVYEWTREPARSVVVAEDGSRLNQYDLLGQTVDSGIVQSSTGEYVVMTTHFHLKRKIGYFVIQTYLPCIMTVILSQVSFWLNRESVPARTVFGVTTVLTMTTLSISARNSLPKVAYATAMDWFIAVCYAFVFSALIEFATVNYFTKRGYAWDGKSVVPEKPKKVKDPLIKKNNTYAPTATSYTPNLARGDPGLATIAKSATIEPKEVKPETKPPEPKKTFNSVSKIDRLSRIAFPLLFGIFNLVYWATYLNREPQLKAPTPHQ

Prothrombin = Prothrombin (Homo sapiens, UniProt P00734); assay type: functional
Adenosine receptor A3 = biological target: T4, Adenosine receptor A3 (Homo sapiens, UniProt P0DMS8)
T4 sequence (P0DMS8 whole entry): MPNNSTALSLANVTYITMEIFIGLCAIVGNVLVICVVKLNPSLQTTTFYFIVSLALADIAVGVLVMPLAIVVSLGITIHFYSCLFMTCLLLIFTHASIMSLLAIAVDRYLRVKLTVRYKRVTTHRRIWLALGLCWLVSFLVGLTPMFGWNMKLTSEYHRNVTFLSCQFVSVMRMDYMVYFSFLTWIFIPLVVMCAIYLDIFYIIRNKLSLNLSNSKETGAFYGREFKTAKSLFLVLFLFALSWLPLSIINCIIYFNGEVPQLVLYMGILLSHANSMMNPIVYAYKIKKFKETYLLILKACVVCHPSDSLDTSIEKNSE

D(3) dopamine receptor [6] = biological target: T3, D(3) dopamine receptor; remark: listed apart in the source
[7] = biological target: Vascular endothelial growth factor receptor 2 (Homo sapiens, UniProt P35968); assay type: functional
Vascular endothelial growth factor receptor 2, sequence (P35968 whole entry): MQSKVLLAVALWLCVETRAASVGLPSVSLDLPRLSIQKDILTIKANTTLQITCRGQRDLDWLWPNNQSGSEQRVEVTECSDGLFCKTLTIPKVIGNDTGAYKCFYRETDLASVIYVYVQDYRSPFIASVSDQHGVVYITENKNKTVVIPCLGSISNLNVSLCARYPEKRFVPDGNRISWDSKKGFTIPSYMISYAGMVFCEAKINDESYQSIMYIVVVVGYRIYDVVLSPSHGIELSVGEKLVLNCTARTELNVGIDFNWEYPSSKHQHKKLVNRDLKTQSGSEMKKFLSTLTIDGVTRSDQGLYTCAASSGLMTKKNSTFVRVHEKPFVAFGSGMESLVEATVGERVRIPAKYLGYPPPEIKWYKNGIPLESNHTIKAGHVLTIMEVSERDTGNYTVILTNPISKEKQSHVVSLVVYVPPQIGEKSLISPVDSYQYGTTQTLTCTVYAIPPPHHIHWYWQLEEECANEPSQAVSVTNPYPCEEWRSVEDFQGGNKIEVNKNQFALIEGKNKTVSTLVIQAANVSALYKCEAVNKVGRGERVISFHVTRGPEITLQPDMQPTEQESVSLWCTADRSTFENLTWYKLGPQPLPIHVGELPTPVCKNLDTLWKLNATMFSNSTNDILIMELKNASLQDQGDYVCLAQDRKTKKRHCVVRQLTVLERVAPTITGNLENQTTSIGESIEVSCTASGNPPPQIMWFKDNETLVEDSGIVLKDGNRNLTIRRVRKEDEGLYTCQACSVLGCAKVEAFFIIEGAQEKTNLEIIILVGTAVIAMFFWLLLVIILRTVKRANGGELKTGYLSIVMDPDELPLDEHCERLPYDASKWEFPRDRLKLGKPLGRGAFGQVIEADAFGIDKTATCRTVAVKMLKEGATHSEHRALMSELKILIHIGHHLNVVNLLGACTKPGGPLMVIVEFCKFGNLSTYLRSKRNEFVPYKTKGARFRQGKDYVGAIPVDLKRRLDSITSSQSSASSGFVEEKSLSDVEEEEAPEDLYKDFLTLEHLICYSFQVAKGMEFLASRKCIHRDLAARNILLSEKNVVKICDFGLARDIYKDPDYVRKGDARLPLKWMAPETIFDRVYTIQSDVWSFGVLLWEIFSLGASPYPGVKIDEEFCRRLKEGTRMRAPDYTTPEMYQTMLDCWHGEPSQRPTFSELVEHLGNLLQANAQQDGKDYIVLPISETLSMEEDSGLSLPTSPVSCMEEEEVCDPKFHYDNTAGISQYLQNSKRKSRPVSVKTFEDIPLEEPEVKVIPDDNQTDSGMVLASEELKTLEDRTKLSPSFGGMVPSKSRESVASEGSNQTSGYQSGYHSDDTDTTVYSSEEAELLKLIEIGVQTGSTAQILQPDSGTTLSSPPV

Thromboxane A2 receptor = biological target: T5, Thromboxane A2 receptor (Homo sapiens, UniProt P21731); assay type: functional, cell-based
T5 sequence (P21731 whole entry): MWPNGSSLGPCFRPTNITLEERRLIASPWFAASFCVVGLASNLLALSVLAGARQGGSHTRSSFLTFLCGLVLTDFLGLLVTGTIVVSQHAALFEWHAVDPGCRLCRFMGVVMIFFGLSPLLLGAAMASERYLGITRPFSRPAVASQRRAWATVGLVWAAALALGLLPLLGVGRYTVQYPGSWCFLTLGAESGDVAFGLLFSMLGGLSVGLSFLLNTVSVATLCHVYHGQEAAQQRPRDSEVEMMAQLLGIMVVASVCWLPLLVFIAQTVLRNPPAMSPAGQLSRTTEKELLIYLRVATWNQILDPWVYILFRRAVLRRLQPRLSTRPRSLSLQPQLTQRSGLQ

[8] = biological target: 5-hydroxytryptamine receptor 2B (Homo sapiens, UniProt P41595); assay type: functional, cell-based
5-hydroxytryptamine receptor 2B, sequence (P41595 whole entry): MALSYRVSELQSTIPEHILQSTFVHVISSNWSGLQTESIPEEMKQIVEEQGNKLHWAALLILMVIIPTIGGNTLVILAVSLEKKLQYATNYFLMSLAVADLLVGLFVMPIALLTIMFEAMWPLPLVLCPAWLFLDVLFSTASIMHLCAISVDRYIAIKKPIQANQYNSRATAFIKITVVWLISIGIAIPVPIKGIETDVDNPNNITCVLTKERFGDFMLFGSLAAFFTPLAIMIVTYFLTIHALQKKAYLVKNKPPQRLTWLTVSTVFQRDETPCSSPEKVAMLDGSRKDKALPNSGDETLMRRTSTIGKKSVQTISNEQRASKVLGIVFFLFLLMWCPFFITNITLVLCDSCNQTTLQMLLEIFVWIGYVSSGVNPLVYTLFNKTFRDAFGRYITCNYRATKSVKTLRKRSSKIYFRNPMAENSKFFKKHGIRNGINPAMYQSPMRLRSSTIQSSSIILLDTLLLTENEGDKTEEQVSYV

[9] = biological target: T6, Alpha-1A adrenergic receptor (Homo sapiens, UniProt P35348); assay type: functional, cell-based
T6 sequence (P35348 whole entry): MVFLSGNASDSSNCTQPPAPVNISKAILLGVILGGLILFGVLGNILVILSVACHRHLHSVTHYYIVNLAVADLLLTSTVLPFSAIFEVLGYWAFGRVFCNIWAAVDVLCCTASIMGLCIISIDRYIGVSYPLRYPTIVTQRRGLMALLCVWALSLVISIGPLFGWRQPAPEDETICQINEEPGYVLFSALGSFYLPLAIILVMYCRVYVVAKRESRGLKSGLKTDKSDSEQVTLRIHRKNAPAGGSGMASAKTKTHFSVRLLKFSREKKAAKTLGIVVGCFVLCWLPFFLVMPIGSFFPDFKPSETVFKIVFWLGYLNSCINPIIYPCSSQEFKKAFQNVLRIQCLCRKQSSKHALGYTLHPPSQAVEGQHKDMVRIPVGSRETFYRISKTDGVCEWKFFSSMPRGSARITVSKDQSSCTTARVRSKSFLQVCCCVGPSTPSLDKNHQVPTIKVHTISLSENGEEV

Measured: AC50
Note: assay procedure not described here.

Histamine H2 receptor, sequence (P25021 whole entry): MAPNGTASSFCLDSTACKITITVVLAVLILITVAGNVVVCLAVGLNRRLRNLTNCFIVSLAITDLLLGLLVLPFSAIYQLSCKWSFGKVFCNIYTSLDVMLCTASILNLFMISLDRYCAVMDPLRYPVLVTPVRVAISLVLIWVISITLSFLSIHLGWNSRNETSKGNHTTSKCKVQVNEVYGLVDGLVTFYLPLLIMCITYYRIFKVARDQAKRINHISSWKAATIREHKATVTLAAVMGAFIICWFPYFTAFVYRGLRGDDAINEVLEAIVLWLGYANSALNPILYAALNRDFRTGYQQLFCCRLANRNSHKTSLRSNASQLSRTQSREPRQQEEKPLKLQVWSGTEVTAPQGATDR

CCN(CC)C(=O)C1(c2ccccc2)CC1CN (centres undefined)
> 30 µM: Histamine H2 receptor | [1] | [2] | D(3) dopamine receptor [3] | [4] | Histamine H3 receptor | [5]

CN(C)C(=O)Oc1cccc([N+](C)(C)C)c1 [NEOSTIGMINE]
> 30 µM: Prothrombin | Adenosine receptor A3 | D(3) dopamine receptor [6] | [7] | Thromboxane A2 receptor | [8] | [9]
